One test concerns the target T1, JH2 domain of human Tyk2 (Homo sapiens, UniProt P29597).
T1 construct: 10×His-tagged TYK2 JH2 domain (amino acid 575-876)
Description: JH2 biochemical assay (TR-FRET probe displacement). The class given is binding. The essentials: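 10×His-tagged human TYK2 JH2 (aa 575-876, 2 nM) incubated 60 min with 2 nM fluorescent probe, 0.1 nM Tb anti-His antibody and compound (10-point 3-fold series from […] top). TR-FRET 520/495 nm ratio, falling with probe displacement, normalized and fitted to a 4-parameter logistic for IC50.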

For test [1], the system named is Tyk2 kinase activity on STAT4. The experiment in a line: pSTAT4 cell assay (MSD, NK92 cells). The class given is cell-based. The conditions noted are these: compounds 1 hr. The essentials: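 IC50 values derive from 4-parameter logistic fits of normalized percent activity against log compound concentration. Phospho-STAT was measured by MSD with anti-STAT4 antibodies after 15 min of 30 ng/mL IL2 in serum-starved NK92 cells pretreated 1 hr with compound.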

[2] abbreviates: TR-FRET probe displacement, JH2 domain of human Tyk2.

Where a name gives a salt, the structure may show the parent alone. Where only a bound is given, the exact number is not on record here.

T1 sequence (P29597 575-876): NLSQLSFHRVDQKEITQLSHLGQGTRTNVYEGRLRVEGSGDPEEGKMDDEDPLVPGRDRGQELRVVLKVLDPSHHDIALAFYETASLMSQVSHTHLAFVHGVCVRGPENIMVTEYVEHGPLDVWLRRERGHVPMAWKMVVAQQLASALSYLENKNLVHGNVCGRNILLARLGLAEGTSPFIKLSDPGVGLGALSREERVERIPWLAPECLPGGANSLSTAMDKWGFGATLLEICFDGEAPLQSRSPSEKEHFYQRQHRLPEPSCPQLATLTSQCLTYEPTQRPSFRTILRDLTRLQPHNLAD

Turning to `CC(=O)Nc1cc2c(cn1)C1(CC1)CN2c1cc(Oc2cnnn2C)nc(C(C)(F)F)n1` [Example 149, N-(1′-(2-(1,1-difluoroethyl)-6-((1-methyl-1H-1,2,3-triazol-5-yl)oxy)pyrimidin-4-yl)-1′,2′-dihydrospiro[cyclopropane-1,3′-pyrrolo[3,2-c]pyridin]-6′-yl)acetamide trifluorocetate], the IC50 at JH2 domain of human Tyk2 (JH2 biochemical assay) was 10 to 100 nM; in test [1] (stimulated 15 minutes) it was at least 1000 nM.
For `CC(=O)Nc1cc2c(cn1)C1(CC1)CN2c1cc(C)cc(-c2cnn(C(C)C)c2)n1` [Example 263, N-(1′-(6-(1-isopropyl-1H-pyrazol-4-yl)-4-methylpyridin-2-yl)-1′,2′-dihydrospiro[cyclopropane-1,3′-pyrrolo[3,2-c]pyridin]-6′-yl)acetamide trifluoroacetate], the IC50 was 10 to 100 nM at JH2 domain of human Tyk2 (JH2 biochemical assay) and at least 1000 nM in test [1] (stimulated 15 minutes).
On to `CC(=O)Nc1cc2c(cn1)C1(CC1)CN2c1cc(C)nc(-c2cnn(C3CC3)c2)n1` [Example 250, N-(1′-(2-(1-cyclopropyl-1H-pyrazol-4-yl)-6-methylpyrimidin-4-yl)-1′,2′-dihydrospiro[cyclopropane-1,3′-pyrrolo[3,2-c]pyridin]-6′-yl)acetamide], for which the IC50 at JH2 domain of human Tyk2 (JH2 biochemical assay) is 10 to 100 nM; in test [1] (stimulated 15 minutes) it was at least 1000 nM.
For `CC(=O)Nc1cc2c(cn1)C1(CC1)CN2c1cc(C)cc(N2CCN(C)CC2)n1` [Example 207, N-(1′-(4-methyl-6-(4-methylpiperazin-1-yl)pyridin-2-yl)-1′,2′-dihydrospiro[cyclopropane-1,3′-pyrrolo[3,2-c]pyridin]-6′-yl)acetamide], the IC50 on JH2 domain of human Tyk2 (JH2 biochemical assay) was 100 to 1000 nM; in test [1] (stimulated 15 minutes), at least 1000 nM.
For `CC(=O)Nc1cc2c(cn1)C1(CC1)CN2c1cc(-c2cnn(C3CC3)c2)nc(C(C)(F)F)n1` [Example 387, N-(1′-(6-(1-cyclopropyl-1H-pyrazol-4-yl)-2-(1,1-difluoroethyl)pyrimidin-4-yl)-1′,2′-dihydrospiro[cyclopropane-1,3′-pyrrolo[3,2-c]pyridin]-6′-yl)acetamide trifluoroacetate], the IC50 (at JH2 domain of human Tyk2 (setting [2]); in test [1] (then stimulated 15 minutes)) was at most 10 nM each time.
Turning to `COC(C)(C)CNc1cc(N2CC3(CC3)c3cnc(NC(C)=O)cc32)nc(C(C)(F)F)n1` [Example 158, N-(1′-(2-(1,1-difluoroethyl)-6-((2-methoxy-2-methylpropyl)amino)pyrimidin-4-yl)-1′,2′-dihydrospiro[cyclopropane-1,3′-pyrrolo[3,2-c]pyridin]-6′-yl)acetamide trifluoroacetate], the IC50 (on JH2 domain of human Tyk2 (JH2 biochemical assay); in test [1] (stimulated 15 minutes)) was at most 10 nM throughout.
In the case of `CC(=O)Nc1cc2c(cn1)C1(CC1)CN2c1cc(C(C)C)nc(C(C)(F)F)n1` [Example 53, N-(1′-(2-(1,1-difluoroethyl)-6-isopropylpyrimidin-4-yl)-1′,2′-dihydrospiro[cyclopropane-1,3′-pyrrolo[3,2-c]pyridin]-6′-yl)acetamide], the IC50 at JH2 domain of human Tyk2 (JH2 biochemical assay) was at most 10 nM; in test [1] (stimulated 15 minutes), 10 to 100 nM.
For `CC(=O)Nc1cc2c(cn1)C1(CC1)CN2c1cc(C)nc(C(C)C)n1` [Example 66, N-(1′-(2-isopropyl-6-methylpyrimidin-4-yl)-1′,2′-dihydrospiro[cyclopropane-1,3′-pyrrolo[3,2-c]pyridin]-6′-yl)acetamide], the half-inhibitory concentration (IC50) at JH2 domain of human Tyk2 (JH2 biochemical assay) is at most 10 nM; in test [1] (stimulated 15 minutes) it was 100 to 1000 nM.
For the compound `COC(C)(C)COc1nc(C)cc(N2CC3(CC3)c3cnc(NC(C)=O)cc32)n1` [Example 373, N-(1′-(2-(2-methoxy-2-methylpropoxy)-6-methylpyrimidin-4-yl)-1′,2′-dihydrospiro[cyclopropane-1,3′-pyrrolo[3,2-c]pyridin]-6′-yl)acetamide], the IC50 on JH2 domain of human Tyk2 (setting [2]) was 100 to 1000 nM; in test [1] (then stimulated 15 minutes), at least 1000 nM.
Regarding `CC(=O)Nc1cc2c(cn1)C1(CC1)CN2c1cc(C)nc(C2CCN(S(C)(=O)=O)CC2)n1` [Example 122, N-(1′-(6-methyl-2-(1-(methylsulfonyl)piperidin-4-yl)pyrimidin-4-yl)-1′,2′-dihydrospiro[cyclopropane-1,3′-pyrrolo[3,2-c]pyridin]-6′-yl)acetamide], the figures for the IC50 (at JH2 domain of human Tyk2 (JH2 biochemical assay); in test [1] (stimulated 15 minutes)) were 100 to 1000 nM and at least 1000 nM, respectively.

These data come from US20260258032A1, “TYROSINE KINASE 2 INHIBITORS AND USES THEREOF” (BIOGEN MA INC., priority 2022, published 2026).
